From patent US9944606B2, “Cannabinoid receptor modulators” (Arena Pharmaceuticals, Inc., priority 2009, dated 2018)

Assays:
hCB1 = hCB1 (Homo sapiens (Human), UniProt P21554); test: Radioligand binding assay, hCB1; conditions: NR = No Response
human CB2 receptor = human CB2 receptor (Homo sapiens (Human), UniProt P34972); test: Radioligand binding assay ([3H]CP55,940 / [3H]WIN55,212-2), hCB2; conditions: HEK293 membranes expressing human CB2, NR = No Response
Protocol: Preparation of Membranes: HEK293 cells stably expressing human CB2 receptor were collected, washed in ice cold PBS, and centrifuged at 48,000×g for 20 min at 4° C. The cell pellet was then collected, resuspended in wash buffer (20 mM HEPES, pH 7.4 and 1 mM EDTA), homogenized on ice using a Brinkman Polytron, and centrifuged at 48,000×g for 20 min at 4° C. The resultant pellet was resuspended in ice cold 20 mM HEPES, pH 7.4, homogenized again on ice, recentrifuged for 20 min at 4° C., and membrane pellets were then stored at −80° C. until needed.
[…] and [^3H]WIN55, 212-2 Radioligand Binding Assays: Radioligand binding assays for human CB2 receptors were performed using two different agonist radioligands, [^3H]CP55,940 and [^3H]WIN55, 212-2 and similar assay conditions. For both assays, nonspecific binding was determined in the presence of 10 μM unlabeled compound. […] Then, 25 μL of BetaScint scintillation cocktail was added to each well, and plates were read in a Packard TopCount scintillation counter.

[1] = test system: paclitaxel-induced allodynia; test: Paclitaxel-induced allodynia in Sprague Dawley rats; format: in vivo; conditions: 10 mg/kg orally, FIG. 3
Protocol: Animals: Male Sprague Dawley rats [200-250 g] (Harlan Laboratories Inc., Livermore, Calif.) were housed three per cage and maintained in a humidity-controlled (40-60%) and temperature-controlled (68-72° F.) facility on a 12 h:12 h light/dark cycle (lights on at 6:30 am) with free access to food (Harlan Teklad, Orange, Calif., Rodent Diet 8604) and water. Rats were allowed one week of habituation to the animal facility before starting treatment.
Induction of Allodynia: Rats were treated intraperitoneally, with 2 mg/kg of paclitaxel (Sigma Aldrich, Saint Louis, Mo.) in 10% Cremophor vehicle (500 μL) on days 0, 2, 4, and 6.
Clinical scoring: Tactile allodynia was tested using von Frey filaments. Briefly, the von Frey assay was performed using the standardized up down method with von Frey filaments, that determine the tactile sensitivity of the paw. By applying the increasingly or decreasingly thicker filaments to the paw in a logarithmic scale of actual force, a linear scale of perceived intensity is determined
Drug treatment: Eight days after the start of paclitaxel dosing, a baseline measurement (von Frey assay) was performed prior to dosing of compounds. […] As a positive control, rats were dosed intraperitoneally with 100 mg/kg gabapentin in water. The dosing volume for oral and peritoneal treatment was 500 μL. […]

[2] = test system: FCA-induced hyperalgesia model of inflammatory pain; test: FCA-induced hyperalgesia in rats; format: in vivo, Sprague Dawley rats; conditions: FCA rats, 0.1, 1, 3, 10 and 30 mg/kg orally, 1 h post dosing, Analgesy-Meter, FIG. 1
Protocol: Animal Info: Male Sprague Dawley rats from Harlan (200-225 g when received) were used. Upon arrival, rats were housed 4 per cage in shoe-box polycarbonate cages with wire tops, wood chip bedding and suspended food and water bottles Animals were acclimated for 5-7 days prior to being injected with Freund's complete adjuvant (FCA) (Sigma; catalog #5881).
Experimental procedure: 2 days (48 h) before testing compounds, baseline readings of all rats were taken right before FCA injection. Rats were then injected with 50 μL FCA containing 1 mg/mL Mtb (Mycobacterium tuberculosis) in right hind footpad under inhalation anesthesia (isoflurane). 48 hours after FCA injection, readings were taken as pre-dosing baseline and then rats were dosed orally with 0.5 mL of vehicle or compound (0.5 mL per 250 g rat). Readings were taken again at 1 h post dosing. All readings were taken with an Analgesy-Meter (Ugo Basile) which measures mechanical hyperalgesia via paw pressure.
Clinical scoring: FCA-induced hyperalgesia was tested with an Analgesy-Meter. Briefly, the Analgesy Meter applied an increasing pressure to the right hind paw. The paw withdrawal threshold was the pressure leading to withdrawal.
Meanwhile a group of rats were dosed orally with 50 mg/kg of Diclofenac as a positive control. Readings were taken again at 1 h post dosing. Dosing volume was 500 μL per 250 g rat.

[3] = test system: MIA model of osteoarthritis; test: MIA model of osteoarthritis pain (von Frey, weight distribution, grip strength); format: in vivo, Sprague Dawley rats; conditions: MIA rats, 3, 10 and 30 mg/kg orally, one hour after dosing, FIG. 2
Source text: Injection of monosodium iodoacetate (MIA) into a joint (Kalbhen, 1987) inhibits the activity of glyceraldehyde-3-phosphate dehydrogenase in chondrocytes, resulting in disruption of glycolysis and eventually in cell death. The progressive loss of chondrocytes results in histological and morphological changes of the articular cartilage, closely resembling those seen in osteoarthritis patients.
The osteoarthritis was induced in 200 g male Sprague Dawley rats. […]
Typically during disease progression, there was an inflammation period of 0-7 days post-intra-articular injection followed by progressive degeneration of the cartilage and subchondral bone from days 14-55. […] Tactile allodynia was measured via von Frey assay, hind limb paw weight distribution was monitored using an incapacitence tester (Columbus Instruments, Columbus, Ohio, USA) and hind limb grip strength was measured using a grip strength meter (Columbus Instruments, Columbus, Ohio, USA). […] Hind paw weight distribution was determined by placing rats in a chamber so that each hind paw rests on a separate force plate of the incapacitence tester. The force exerted by each hind limb (measured in grams) is averaged over a 3 second period. Three measurements were taken for each rat, and the change in hind paw weight distribution calculated. […]

[4] = test system: streptozotocin-induced painful diabetic peripheral neuropathy; test: Streptozotocin-induced painful diabetic peripheral neuropathy (PDPN) model; format: in vivo, Sprague-Dawley rats; conditions: diabetic allodynic rats, 10 mg/kg orally in 0.5% methylcellulose, 1, 4 and 6 hours post-dosing, FIG. 17 and FIG. 18
Protocol: Male Sprague-Dawley rats were injected intraperitoneally with 50 mg/kg of streptozotocin (STZ) in sodium citrate buffer. 10% sucrose water was provided ad libitum for the first 48 hours post-STZ followed by regular drinking water. Rats were monitored once weekly for blood glucose levels and body weights. Development of tactile allodynia over time was analyzed using Von Frey filaments and a 50% withdrawal threshold was determined using Dixon's up-down procedure. […] Tactile allodynia was evaluated at 1, 4 and 6 hours post-dosing.

CONC(=O)[C@@H](NC(=O)c1nn(-c2c[n+]([O-])ccn2)c2c1C[C@H]1C[C@@H]21)C(C)(C)C [Compound 755]
Ki (hCB1): 1200 nM | Ki (human CB2 receptor): 3.8 nM

CC(C)(CO)NC(=O)c1nn(-c2ccc(F)cc2F)c2c1C[C@H]1C[C@@H]21 [Compound 493, (1aR,5aR)-2-(2,4-Difluoro-phenyl)-1a,2,5,5a-tetrahydro-1H-2,3-diaza-cyclopropa[a]pentalene-4-carboxylic Acid (2-Hydroxy-1,1-dimethyl-ethyl)-amide]
time of maximum efficacy post-dosing ([1]; time course): 1 h | paw withdrawal threshold (PWT) in comparison with vehicle and gabapentin, therapeutic efficacy ([1]; von Frey 30, 60 and 180 minutes after dosing): increase in paw withdrawal threshold (PWT) | paw withdrawal threshold (PWT) in comparison with vehicle, therapeutic efficacy [2]: increase in paw withdrawal threshold (PWT) | paw withdrawal threshold (PWT) in comparison with vehicle, therapeutic efficacy [3]: Increase in paw withdrawal threshold (PWT)

CC(C)(NC(=O)c1nn(-c2c[n+]([O-])ccn2)c2c1C[C@@H]1C[C@H]21)C(F)(F)F [Compound 919, (1aS,5aS)-2-(4-Oxy-pyrazin-2-yl)-1a,2,5,5a-tetrahydro-1H-2,3-diaza-cyclopropa[a]pentalene-4-carboxylic acid (2,2,2-trifluoro-1,1-dimethyl-ethyl)-amide]
analgesic efficacy (tactile allodynia, 50% withdrawal threshold) [4]: robust and sustained analgesic efficacy over 6 hours

CC(C)(C)[C@@H](CO)NC(=O)c1nn(-c2c[n+]([O-])ccn2)c2c1C[C@@H]1C[C@H]21 [Compound 699, (1aS,5aS)-2-(4-Oxy-pyrazin-2-yl)-1a,2,5,5a-tetrahydro-1H-2,3-diaza-cyclopropa[a]pentalene-4-carboxylic Acid ((S)-1-Hydroxymethyl-2,2-dimethyl-propyl)-amide]
analgesic efficacy (tactile allodynia, 50% withdrawal threshold) [4]: robust and sustained analgesic efficacy over 6 hours

CNC(=O)[C@@H](NC(=O)c1nn(-c2c[n+]([O-])ccn2)c2c1C[C@@H]1C[C@H]21)C(C)(C)C [Compound 701]
Ki (hCB1): 105 nM
